The values that follow come from US8173639B2, “Isoquinolinone derivatives as NK3 antagonists” (H. Lundbeck A/S, priority 2007, dated 2012).

For assay [1], the target named is T1, human NK3 receptor (Homo sapiens, UniProt P29371).
T1 construct: expressed in transfected cells; membrane preparation
T1 sequence (P29371 1-465): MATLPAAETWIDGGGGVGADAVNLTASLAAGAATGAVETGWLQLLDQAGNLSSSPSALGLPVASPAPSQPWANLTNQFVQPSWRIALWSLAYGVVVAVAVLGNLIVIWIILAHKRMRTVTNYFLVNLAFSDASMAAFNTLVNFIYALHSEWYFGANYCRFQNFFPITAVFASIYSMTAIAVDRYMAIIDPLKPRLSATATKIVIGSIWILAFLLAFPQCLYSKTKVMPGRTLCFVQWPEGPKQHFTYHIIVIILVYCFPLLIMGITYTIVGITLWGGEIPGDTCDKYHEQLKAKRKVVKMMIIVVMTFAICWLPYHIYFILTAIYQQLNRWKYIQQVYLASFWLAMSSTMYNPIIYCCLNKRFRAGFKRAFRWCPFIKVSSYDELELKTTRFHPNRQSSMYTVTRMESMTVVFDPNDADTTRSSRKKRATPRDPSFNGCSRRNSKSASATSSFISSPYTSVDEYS
Description: NK3 receptor efficacy and potency assay (FLIPR Calcium 4, BHK cells). In kind it is cell-based. To be noted: read-out: Potency cIC50. The procedure:
BHK cells stably expressing the human NK3 receptor were seeded in 100 μl media in black walled clear-base 96-wells plates (Costar) aiming at a confluency of 95-100% at the day of assay. The assay was performed according to the FLIPR Calcium 4 Assay kit (Molecular Devices). At the day of the assay, the media was removed and the cells were washed once with the HBSS buffer (Hanks BSS buffer, pH 7.4 containing 20 mM Hepes) before 100 μl of a solution of the calcium assay reagent dissolved in the HBSS buffer containing 2.5 mM probinicid was added to the cells. The plates were incubated for 60 min at 34° C., 10% CO2 before use in the FLIPR for examination of fluorescence.
For efficacy and potency evaluation of compounds, these were diluted in HBSS buffer prior to test. For test of agonist activity, 25 μl of the diluted compound solution was added and the plate was analyzed for 5 minutes in the FLIPR. […] The plates were subsequently analyzed for 5 minutes before the assay was terminated. The maximal increase in fluorescence over background following each ligand addition was determined.

Assay [2] has as its target T1, human NK3 receptor. Description: NK3 receptor binding assay (SPA-based competition binding, 125I-NKB). To be noted: table of Example 10; obtained as described in Example 9; read-out: Affinity Ki. The procedure: Membranepreparation: BHK cells stably expressing the human NK3 receptor were seeded in harvesting plates in Dulbeccos MEM containing GlutaMax (862 mg/l), 1 mM sodium pyruvate, 10% fetal calf serum, 1% Pen/Strep, 1 mg/ml G418 and were grown at 34° C. in a humidified atmosphere containing 10% CO2. To increase receptor expression, 10 μM trichotatin A was added to the media 24 hours before harvest of the cells at a confluency of app 90%. Prior to the harvesting, the cells were washed twice with PBS without Mg^2+ or Ca^2+ and subsequently scrapped of in 10 ml PBS pr harvesting plate. The cells suspension were centrifuged at 1500×G in three minutes before resuspension in 15 mM Tris-HCl pH 7.5 buffer containing 2 mM MgCl2; 0.3 mM EDTA and 1 mM EGTA (buffer A). The cell suspension was homogenised and subsequently centrifuged at 4000×G in 30 minutes. The membrane-pellet was resuspended in buffer A containing 250 mM sucrose, aliquoted and stored at −80° C.
Affinity assay description: The assay was performed as a SPA-based competition-binding assay in a 50 mM Tris pH 7.4 assay buffer containing 120 mM NaCl, 3 mM MnCl2, 40 μg/ml bacitracin, 2 μg/ml Chymostatin, 1 μg/ml Phosphoramidon and 4 μg/ml Leupeptin. […] The assay plate was subsequently under agitation incubated for 90 min at RT. The plate was centrifugated 10 minutes at 500×G and counted in a topcounter 5 minutes pr well.

For assay [3] the following is noted: cited from earlier work.

In the case of `CC[C@H](NC(=O)c1c(CN2CCc3ccccc3C2)n(-c2ccccc2)c(=O)c2ccccc12)c1ccccc1` [Example 2bg, 3-(3,4-Dihydro-1H-isoquinolin-2-ylmethyl)-1-oxo-2-phenyl-1,2-dihydro-isoquinoline-4-carboxylic acid ((S)-1-phenyl-propyl)-amide], the IC50 at human NK3 receptor [1] came to 220 nM. Moreover, on human NK3 receptor [2], the inhibition constant (Ki) was determined as 160 nM.
For the compound `CC[C@H](NC(=O)c1c(CN2Cc3ccccc3C2)n(-c2ccccc2)c(=O)c2ccccc12)c1ccccc1` [Example 2bn, 3-(1,3-Dihydro-isoindol-2-ylmethyl)-1-oxo-2-phenyl-1,2-dihydro-isoquinoline-4-carboxylic acid ((S)-1-phenyl-propyl)-amide], the IC50 at human NK3 receptor [1] turned out to be 300 nM. Also, the inhibitory constant (Ki) at human NK3 receptor [2] is 160 nM.
The matching figures for `CC[C@H](NC(=O)c1c(CN2CCCNCC2)n(-c2ccccc2)c(=O)c2ccccc12)c1ccccc1` [Example 2cz, 3-[1,4]Diazepan-1-ylmethyl-1-oxo-2-phenyl-1,2-dihydro-isoquinoline-4-carboxylic acid ((S)-1-phenyl-propyl)-amide]: 49 nM and 76 nM.
Regarding `CC[C@H](NC(=O)c1c(CN2CCOCC2)n(-c2ccccc2)c(=O)c2ccccc12)c1ccccc1` [Example 2r, 3-Morpholin-4-ylmethyl-1-oxo-2-phenyl-1,2-dihydro-isoquinoline-4-carboxylic acid ((S)-1-phenyl-propyl)-amide], the IC50 at human NK3 receptor [1] was 420 nM. In addition, on human NK3 receptor [2], the inhibition constant Ki stood at 320 nM.
In the case of `CC[C@H](NC(=O)c1c(CN2CC(C)OC(C)C2)n(-c2ccccc2)c(=O)c2ccccc12)c1ccccc1` (stereo partly drawn) [Example 2s, 3-(2,6-Dimethyl-morpholin-4-ylmethyl)-1-oxo-2-phenyl-1,2-dihydro-isoquinoline-4-carboxylic acid ((S)-1-phenyl-propyl)-amide], the IC50 on human NK3 receptor [1] amounted to 340 nM. Also, at human NK3 receptor [2], the Ki amounted to 200 nM.
On to `CC(=O)N(C)C1(c2ccccc2)CCN(CCC[C@]2(c3ccc(Cl)c(Cl)c3)CCCN(C(=O)c3ccccc3)C2)CC1` [Osanetant, osanetant], for which the “effect in clinical trials versus placebo” value in assay [3] (in particular on positive symptoms of psychosis) was “superior to placebo”.
Turning to `CC[C@H](NC(=O)c1c(O)c(-c2ccccc2)nc2ccccc12)c1ccccc1` [talnetant], the “effect on cognitive behaviour in clinical trials” value in assay [3] (schizophrenics) is given as “ameliorate the cognitive behaviour of schizophrenics”.
